Experimental data reported in article PMC9496042 (2022).

Assays:
[1] = test system: Apt-14t (DNA, aptamer) ACGGCCAGTGGGTGGGGCGGGTGGCGGCCGGTTGTTTCTATGC; assay: graphene oxide fluorescence recovery (FAM); conditions: 100 mM NaCl, 5 mM KCl, 2 mM MgCl2, 1 mM CaCl2; for binding: binding buffer pH 7.6, 100 nM aptamer, 1 µM compound
[2] = test system: Apt-14t (AuNP assay) (DNA, aptamer) ACGGCCAGTGGGTGGGGCGGGTGGCGGCCGGTTGTTTCTATGC; assay: AuNP colorimetry (A650/A520); conditions: 100 mM NaCl, 5 mM KCl, 2 mM MgCl2, 1 mM CaCl2; binding buffer pH 7.6, 37 °C; 200 nM aptamer; NaCl added after binding to aggregate AuNPs
[3] = test system: Apt-15 (DNA, aptamer) GCTGTGTGACTCCTGCAACACGAACGTTTCCGTGGGTGGGTGGGTGGCCAAATGTCGCGTGGCAGCTGTATCTTGTCTCC; assay: graphene oxide fluorescence recovery (FAM); conditions: 100 mM NaCl, 5 mM KCl, 2 mM MgCl2, 1 mM CaCl2; 20 mM Tris-HCl pH 7.6 (binding buffer); aptamer titrated at fixed FF (1 M [sic])
[4] = test system: Apt-14 (DNA, aptamer) GCTGTGTGACTCCTGCAAACGGCCAGTGGGTGGGGCGGGTGGCGGCCGGTTGTTTCTATGCGCAGCTGTATCTTGTCTCC; assay: graphene oxide fluorescence recovery (FAM); conditions: 100 mM NaCl, 5 mM KCl, 2 mM MgCl2, 1 mM CaCl2; 20 mM Tris-HCl pH 7.6 (binding buffer); aptamer titrated at fixed FF (1 M [sic]); GO:ssDNA 20:1
[5] = test system: Apt-1 (DNA, aptamer) GCTGTGTGACTCCTGCAAGGTCCTCGGGTGGTGGGTGGGCTCGGGTTTTTGTTCACTCTCCGCAGCTGTATCTTGTCTCC; assay: graphene oxide fluorescence recovery (FAM); conditions: 100 mM NaCl, 5 mM KCl, 2 mM MgCl2, 1 mM CaCl2; 20 mM Tris-HCl pH 7.6 (binding buffer); aptamer titrated at fixed FF (1 M [sic])
[6] = test system: Apt-20 (DNA, aptamer) GCTGTGTGACTCCTGCAAGCGCAATGATGTGTTGTGGGTGGGCGGGTGGCTCATTGCGTGGGCAGCTGTATCTTGTCTCC; assay: graphene oxide fluorescence recovery (FAM); conditions: 100 mM NaCl, 5 mM KCl, 2 mM MgCl2, 1 mM CaCl2; 20 mM Tris-HCl pH 7.6 (binding buffer); aptamer titrated at fixed FF (1 M [sic])

Row | SMILES | binding [1] | binding [2] | Kd [3] [nM] | Kd [4] [nM] | Kd [5] [nM] | Kd ([1]; 20 mM Tris-HCl pH 7.6 (binding buffer), aptamer titrated 0-200 nM at fixed FF (1 M [sic])) [nM] | Kd [6] [nM]
1 | CS(=O)(=O)c1ccc([C@@H](O)[C@@H](CO)NC(=O)C(Cl)Cl)cc1 | weak | – | – | – | – | – | –
2 | CS(=O)(=O)c1ccc([C@@H](O)[C@H](N)CF)cc1 | yes | yes | – | – | – | – | –
3 | O=C(N[C@H](CO)[C@H](O)c1ccc([N+](=O)[O-])cc1)C(Cl)Cl | weak | – | – | – | – | – | –
4 | CS(=O)(=O)c1ccc([C@@H](O)[C@@H](CF)NC(=O)C(Cl)Cl)cc1 | – | yes | 57.41 ± 18.0 | 34.65 ± 5.7 | 70.90 ± 22.36 | 4.66 ± 0.75 | 59.44 ± 16.9
